Measured values reported in ChEMBL document CHEMBL6115037, “Discovery of novel small molecules targeting TGF-β signaling for the treatment of non-small cell lung cancer” (Eur J Med Chem, 2025).
In brackets after ≈: the same amount, converted by molar mass. Activity calls are given as the source filed them. The rule behind the calls is not given here.

Key:
A549 [1] = assay: Antiproliferative activity against human A549 cells assessed as inhibition of cell growth measured after 72 hrs by SRB method; assay type: functional, cell-based; conditions: A549, 72 h
[2] = Permeability of the compound in PBS buffer assessed as drug recovery at pH 7.4 incubated for 16 hrs by PAMPA method; assay type: ADME; conditions: read-out: Drug recovery
[3] = Water solubility of the compound in PBS buffer at pH 2.0 incubated for 24 hrs under shaking condition by HPLC analysis; assay type: physicochemical
[4] = Water solubility of the compound […] at pH 9.0 incubated for 24 hrs under shaking condition by HPLC analysis; assay type: physicochemical
[5] = Water solubility of the compound in PBS buffer at pH 7.4 incubated for 24 hrs under shaking condition by HPLC analysis; assay type: physicochemical
A549 [6] = assay: Induction of cell cycle arrest in human A549 cells assessed as accumulation at G2/M phase measured after 48 hrs by flow cytometric analysis; assay type: functional, cell-based; conditions: dose 0.05-0.5 µM
NCI-H1299 [7] = assay: Inhibition of colony formation in human NCI-H1299 cells at 0.05 to 0.5 uM measured after 48 hrs by crystal violet staining based inverted microscopic analysis; assay type: functional, cell-based; conditions: dose 0.05-0.5 µM
NCI-H441 = assay: Antiproliferative activity against human NCI-H441 cells assessed as inhibition of cell growth measured after 72 hrs by SRB method; assay type: functional, cell-based; conditions: NCI-H441, 72 h
A549 [8] = assay: Downregulation of TbetaRI protein expression in human A549 cells measured after 48 hrs by Western blot analysis; assay type: functional, cell-based; conditions: dose 0.05-0.5 µM
A549 [9] = assay: Induction of cell apoptosis in human A549 cells assessed as increase in early apoptotic cells measured after 48 hrs by Annexin V-FITC/PI staining based flow cytometry analysis; assay type: functional; conditions: dose 0.05-0.5 µM
A549 [10] = assay: Induction of cell cycle arrest in human A549 cells assessed as accumulation at G2/M phase at high concentration measured after 48 hrs by flow cytometric analysis; assay type: functional, cell-based
A549 [11] = assay: Antitumor activity against human A549 cells xenografted in female BALB/c nude mouse model assessed as decrease in Ki-67 expression at 10 mg/kg via gavage by immunochemical staining based analysis; assay type: functional, organism-based
A549 [12] = assay: Induction of cell apoptosis in human A549 cells assessed as increase in early apoptotic cells at 0.05 uM measured after 48 hrs by Annexin V-FITC/PI staining based flow cytometry analysis; assay type: functional
NCI-H1299 [13] = assay: Antiproliferative activity against human NCI-H1299 cells harbouring TbetaI by Western blot analysis; assay type: functional, cell-based; conditions: dose 0.05-0.5 µM
A549 [14] = assay: Antitumor activity against human A549 cells xenografted in female BALB/c nude mouse model assessed as decrease in tumor volume at 10 mg/kg via gavage fed with corn oil and measured every other day; assay type: functional, organism-based
A549 [15] = assay: Antiproliferative activity against human A549 cells harbouring si-NC at 0.5 uM by Western blot analysis relative to control; assay type: functional
A549 [16] = assay: Antitumor activity against human A549 cells xenografted in female BALB/c nude mouse model assessed as decrease in TbetaRI level at 10 mg/kg via gavage by immunochemical staining based analysis; assay type: functional, organism-based
A549 [17] = assay: Antiproliferative activity against human A549 cells harbouring TbetaI knockout at 0.5 uM by Western blot analysis; assay type: functional, cell-based
[18] = Toxicity in female BALB/c nude mouse assessed as effect on body weight loss at 10 mg/kg via gavage fed with corn oil for every other day; assay type: organism-based; conditions: in vivo, po
A549 [19] = assay: Downregulation of Smad2/3 phosphorylation level in human A549 cells measured after 48 hrs by Western blot analysis; assay type: functional, cell-based; conditions: dose 0.05-0.5 µM
NCI-H1299 [20] = assay: Antiproliferative activity against human NCI-H1299 cells assessed as inhibition of cell growth measured after 72 hrs by SRB method; assay type: functional, cell-based; conditions: NCI-H1299, 72 h
NCI-H522 = assay: Antiproliferative activity against human NCI-H522 cells assessed as inhibition of cell growth measured after 72 hrs by SRB method; assay type: functional, cell-based; conditions: NCI-H522, 72 h
A549 [21] = assay: Antitumor activity against human A549 cells xenografted in female BALB/c nude mouse model assessed as decrease in tumor weight at 10 mg/kg via gavage fed with corn oil and measured every other day; assay type: functional, organism-based
A549 [22] = assay: Inhibition of colony formation in human A549 cells at 0.5 uM measured after 48 days by crystal violet staining based inverted microscopic analysis relative to control; assay type: functional; conditions: A549, 1152 h, time 48 day
A549 [23] = assay: Antitumor activity against human A549 cells xenografted in female BALB/c nude mouse model assessed as decrease in TbetaRI expression level at 10 mg/kg via gavage by Western blot analysis; assay type: functional, organism-based
A549 [24] = assay: Inhibition of cell migration in human A549 cells incubated for 48 hrs by wound healing assay; assay type: functional, cell-based; conditions: dose 0.05-0.5 µM
A549 [25] = assay: Inhibition of cell invasion in human A549 cells incubated for 48 hrs by crystal violet staining based transwell assay; assay type: functional; conditions: dose 0.05-0.5 µM
A549 [26] = assay: Inhibition of cell invasion in human A549 cells at 0.5 uM incubated for 48 hrs by crystal violet staining based transwell assay relative to control; assay type: functional
A549 [27] = assay: Inhibition of cell migration in human A549 cells at 0.5 uM incubated for 48 hrs by wound healing assay relative to control; assay type: functional

`C=CC(=O)Nc1cc(C(=O)NCCO)c2[nH]c3c(c2c1)CCN(C(=O)Cc1ccccc1F)C3` gave an IC50 (A549 [1]) greater than 5000 nM.

In the case of `O=C(NC1CCC(O)CC1)c1cccc2c3c([nH]c12)CN(C(=O)Cc1ccccc1F)CC3` (stereo not drawn), the IC50 (A549 [1]) is reported as 490 nM.

In the case of `CN(Cc1cnc2nc(N)nc(N)c2n1)c1ccc(C(=O)N[C@@H](CCC(=O)O)C(=O)O)cc1` [METHOTREXATE], the recovery at 16 h [2] is reported as 96.2%.

For `O=C(NC1CCCC1O)c1cccc2c3c([nH]c12)CN(C(=O)Cc1cccs1)CC3` (stereo not drawn), the IC50 (A549 [1]) was 70 nM.

In the case of `O=C(NC1CCC(O)C1)c1cccc2c3c([nH]c12)CN(C(=O)Cc1ccccc1F)CC3` (stereo not drawn), the IC50 (A549 [1]) is reported as 220 nM.

Molecule `O=C(NCCO)c1cccc2c3c([nH]c12)CN(C(=O)Cc1ccccc1F)CC3` has an IC50 (A549 [1]) of 220 nM.

`O=C(Cc1ccccc1F)N1CCc2c([nH]c3c(C(=O)N4CCC(CO)CC4)cccc23)C1` showed an IC50 (A549 [1]) greater than 5000 nM.

Work on `NCCC(=O)Nc1cc(C(=O)NCCO)c2[nH]c3c(c2c1)CCN(C(=O)Cc1ccccc1F)C3` yielded an IC50 (A549 [1]) greater than 5000 nM.

In the case of `C[C@]12CC[C@H]3[C@@H](CCC4=CC(=O)CC[C@@]43C)[C@@H]1CC[C@@H]2O` [TESTOSTERONE], the recovery at 16 h [2] is reported as 85.6%.

With `O=C(NCCO)c1cccc2c3c([nH]c12)CN(C(=O)Nc1ccccc1F)CC3` the IC50 (A549 [1]) was greater than 5000 nM.

In the case of `O=C(Cc1ccccc1F)N1CCc2c([nH]c3c(C(=O)N4CCC(O)CC4)cccc23)C1`, the IC50 (A549 [1]) is reported as greater than 5000 nM.

`O=C(Cc1ccccc1F)N1CCc2c([nH]c3c(C(=O)N4CCNCC4)cccc23)C1` gave an IC50 (A549 [1]) greater than 5000 nM.

`O=C(NCCO)c1cccc2c3c([nH]c12)CN(C(=O)NCc1ccccc1F)CC3` showed an IC50 (A549 [1]) greater than 5000 nM.

Work on `O=C(NCCO)c1cc(NC(=O)C2CCOCC2)cc2c3c([nH]c12)CN(C(=O)Cc1ccccc1F)CC3` yielded an IC50 (A549 [1]) greater than 5000 nM.

`NC1CCC(OC(=O)c2cccc3c4c([nH]c23)CN(C(=O)Cc2ccccc2F)CC4)CC1` (stereo not drawn) gave an IC50 (A549 [1]) greater than 5000 nM.

In the case of `O=C(NC1CCC(C(=O)O)C1)c1cccc2c3c([nH]c12)CN(C(=O)Cc1ccccc1F)CC3` (stereo not drawn), the IC50 (A549 [1]) is reported as greater than 5000 nM.

`O=C(NCCO)c1cccc2c3c([nH]c12)CN(C(=O)Cc1ccco1)CC3` showed an IC50 (A549 [1]) of 4010 nM.

With `CC(=O)Nc1cc(C(=O)NCCO)c2[nH]c3c(c2c1)CCN(C(=O)Cc1ccccc1F)C3` the IC50 (A549 [1]) was greater than 5000 nM.

In the case of `O=C(Cc1ccccc1)N1CCc2c([nH]c3ccccc23)C1`, the IC50 (A549 [1]) is reported as 9130 nM, the solubility thermodynamic at 24 h [3] is reported as 2.23 µM (≈ 0.648 µg/mL) and the solubility thermodynamic at 24 h [4] is reported as 10.7 µM (≈ 3.11 µg/mL). It also gave a recovery at 16 h [2] of 24.4% and a solubility thermodynamic at 24 h [5] of 7.24 µM (≈ 2.1 µg/mL).

With `O=C(NC1CCCC1O)c1cccc2c3c([nH]c12)CN(C(=O)Cc1ccccc1F)CC3` (stereo not drawn) the IC50 (A549 [1]) was 930 nM.

`O=C(NC1CCCC(O)C1)c1cccc2c3c([nH]c12)CN(C(=O)Cc1ccccc1F)CC3` (stereo not drawn) showed an IC50 (A549 [1]) of 120 nM.

`O=C(NC1CCCCC1O)c1cccc2c3c([nH]c12)CN(C(=O)Cc1ccccc1F)CC3` (stereo not drawn) gave an IC50 (A549 [1]) greater than 5000 nM.

`NC1CCC(NC(=O)c2cccc3c4c([nH]c23)CN(C(=O)Cc2ccccc2F)CC4)C1` (stereo not drawn) gave an IC50 (A549 [1]) greater than 5000 nM.

`O=C(NCCO)c1cccc2c3c([nH]c12)CN(C(=O)Cc1c(F)cccc1F)CC3` showed an IC50 (A549 [1]) greater than 5000 nM.

With `O=C(NCCO)c1cc(NC(=O)C2CCNCC2)cc2c3c([nH]c12)CN(C(=O)Cc1ccccc1F)CC3` the IC50 (A549 [1]) was greater than 5000 nM.

For `O=C(NCCO)c1cccc2c3c([nH]c12)CN(C(=O)Cc1cccs1)CC3`, the IC50 (A549 [1]) was 380 nM.

For `O=C(NC1CCC(O)C1)c1cccc2c3c([nH]c12)CN(C(=O)Cc1cccs1)CC3` (stereo not drawn), the Activity (A549 [6]) was “Dose-dependent-effect”, the IC50 (A549 [1]) was 50 nM and the inhibition (NCI-H1299 [7]) was “Active”. For the same molecule, the IC50 (NCI-H441) was 90 nM, the Activity (A549 [8]) was “Dose-dependent-effect” and the Activity (A549 [9]) was “Dose-dependent-effect”. For the same molecule, the solubility thermodynamic at 24 h [3] was 40 µM (≈ 16.9 µg/mL), the Activity (A549 [10]) was “Active” and the Activity (A549 [11]) was “Active”. The Activity (A549 [12]) was “Active”, the Activity (NCI-H1299 [13]) was “Dose-dependent-effect” and the Activity (A549 [14]) was “Active”. The Activity (A549 [15]) was 100%, the Activity (A549 [16]) was “Active” and the Activity (A549 [17]) was “inactive”. The Activity [18] was “Non-toxic”, the solubility thermodynamic at 24 h [4] was 50.4 µM (≈ 21.3 µg/mL) and the Activity (A549 [19]) was “Dose-dependent-effect”. The recovery at 16 h [2] was 65.8%, the IC50 (NCI-H1299 [20]) was 210 nM and the IC50 (NCI-H522) was 260 nM. The Activity (A549 [21]) was “Active”, the inhibition at 0.5 µM (A549 [22]) was 100% and the Activity (A549 [23]) was “Active”. For the same molecule, the inhibition (A549 [24]) was “Dose-dependent-effect”, the inhibition (A549 [25]) was “Dose-dependent-effect” and the inhibition at 0.5 µM (A549 [26]) was 100%. The solubility thermodynamic at 24 h [5] was 41.4 µM (≈ 17.5 µg/mL) and the inhibition at 0.5 µM (A549 [27]) was 100%.

With `O=C(NCCO)c1cccc2c3c([nH]c12)CN(S(=O)(=O)Cc1ccccc1F)CC3` the IC50 (A549 [1]) was 1640 nM.

Work on `O=C(Cc1ccccc1F)N1CCc2c([nH]c3c(C(=O)N4CCC(O)C4)cccc23)C1` (stereo not drawn) yielded an IC50 (A549 [1]) greater than 5000 nM.

`O=C(NC12CC3CC(CC(O)(C3)C1)C2)c1cccc2c3c([nH]c12)CN(C(=O)Cc1ccccc1F)CC3` gave an IC50 (A549 [1]) of 130 nM.

`O=C(Cc1ccccc1F)N1CCc2c([nH]c3c(C(=O)N4CCN(C5COC5)CC4)cccc23)C1` gave an IC50 (A549 [1]) greater than 5000 nM.
